Question: With `O=C(c1ccc(-c2ccncc2)nc1)N1CCN(S(=O)(=O)c2ccc3cc(Br)ccc3c2)CC1` (hydrate or solvate) [Example 1, 1-(6-bromonaphth-2-ylsulphonyl)-4-[6-(4-pyridyl)-nicotinoyl]piperazine] as the compound, how does the melting point read?
Answer: Its melting point is 193.5 °C.

— US6458793B1, “Heterocyclic derivatives which inhibit factor Xa” (Zeneca Limited, priority 1997, dated 2002)
